Test results taken from PMC4394464, “Identification and Pharmacokinetics of Multiple Potential Bioactive Constituents after Oral Administration of Radix Astragali on Cyclophosphamide-Induced Immunosuppression in Balb/c Mice” (International Journal of Molecular Sciences, 2015).

Assay: Profiling of absorbed constituents and metabolites in mice plasma after oral administration of RA (UFLC-DAD-Q-TOF-MS/MS)
Details: oral RA extract 6 g/kg BW; cyclophosphamide-induced immunosuppressed Balb/c mice; plasma sampled 0.25-36 h; '-' = not detected
Procedure: The peaks that appeared at the same position in the total ion chromatograms of both the dosed mice bio-samples and the RA extract, but not in the chromatograms of the controlled mice bio-samples, were regarded as absorbed constituents [22].
Following randomization into study groups, mice (6/group/male) received intraperitoneal injection once daily of cyclophosphamide (i.p. 80 mg/kg BW) for 6 days. Additionally, the control group was injected intraperitoneally with sterile physiological saline. […] Plasma was harvested by centrifugation at 3000× g for 10 min and then kept frozen at −70 °C until analysis.
After being vortexed for 1 min, the sample was centrifuged at 13,000× g at 4 °C for 30 min. The supernate was transferred into a fresh tube and evaporated with nitrogen. Then, the residue was dissolved in a 60-μL mobile phase with vortex mixing for 3 min and centrifuged at 13,000× g for 30 min. Finally, 10 μL of the supernatant were injected into the UFLC/DAD/Q-TOF-MS/MS system.
The multiple constituents in RA and the absorbed compounds in mice plasma were identified by the ultra-fast liquid chromatography/diode-array detector/quadrupole time-of-flight tandem mass spectrometry (UFLC/DAD/Q-TOF-MS/MS) method.
For `COc1cc(/C=C/C(=O)O)ccc1O` [Peak 25, Ferulic acid], the “Source: Dosed Plasma (time points at which the compound was detected)” value (from here on “Source: Dosed Plasma”) was 0.25 to 36 h.
With `COc1cc(O[C@H]2O[C@H](CO)[C@H](O)[C@H](O)[C@H]2O[C@H]2OC[C@@](O)(CO)[C@H]2O)ccc1O` (single isomer, unassigned) [Peak 13, Markhamioside F] the “Source: Dosed Plasma” value was 0.25 to 8 h.
In the case of `Nc1ncnc2c1ncn2[C@@H]1O[C@H](CO)[C@@H](O)[C@H]1O` (single isomer, unassigned) [Peak 10, Adenine nucleoside], the “Source: Dosed Plasma” value is reported as 0.25 to 36 h.
In the case of `C[N+](C)(C)CCO` [Peak 4, Choline], the “Source: Dosed Plasma” value is reported as 0.25 to 36 h.
With `COc1ccc(-c2coc3cc(O[C@@H]4O[C@H](COC(C)=O)[C@@H](O)[C@H](O)[C@H]4O)ccc3c2=O)cc1` (single isomer, unassigned) [Peak 38, 6'-O-acetyl ononin] the “Source: Dosed Plasma” value was 0.25 to 8 h.
In the case of `NC(=O)C[C@H](N)C(=O)O` (single isomer, unassigned) [Peak 2, Asparagine], the “Source: Dosed Plasma” value is reported as 1 to 36 h.
In the case of Sulfated formononetin [Peak M6], the “Source: Dosed Plasma” value is reported as 0.25 to 8 h.
For `COc1cc(C=O)cc(OC)c1O` [Peak 23, Syringaldehyde], the “Source: Dosed Plasma” value was 0.25 to 6 h.
In the case of Sulfated isomucronulatol [Peak M5], the “Source: Dosed Plasma” value is reported as 0.25 to 8 h.
For `O=c1cc(-c2ccc(O)cc2)oc2cc(O[C@@H]3O[C@H](CO)[C@@H](O)[C@H](O)[C@H]3O)cc(O)c12` (single isomer, unassigned) [Peak 30, Cosmosiin], the “Source: Dosed Plasma” value was 0.25 to 36 h.
With `COc1ccc(/C=C/C(=O)O)cc1O` [Peak 27, Isoferulic acid] the “Source: Dosed Plasma” value was 0.25 to 36 h.
For `COc1ccc(-c2coc3cc(OC4OC(C(=O)O)C(O)C(O)C4O)ccc3c2=O)cc1` (stereo not drawn) [Peak M3, Glucuronidated formononetin], the “Source: Dosed Plasma” value was 0.25 to 8 h.
In the case of `O=C(O)CCCCCCCC(=O)O` [Peak 32, Azelaic acid], the “Source: Dosed Plasma” value is reported as 0.25 to 36 h.
In the case of `C[C@@H]1O[C@@H](O[C@H]2[C@H](O[C@H]3[C@H](O[C@H]4CC[C@@]5(C)[C@@H](CC[C@]6(C)[C@@H]5CC=C5[C@@H]7CC(C)(C)C[C@@H](O)[C@]7(C)CC[C@]56C)[C@@]4(C)CO)O[C@H](C(=O)O)[C@@H](O)[C@@H]3O)O[C@H](CO)[C@H](O)[C@@H]2O)[C@H](O)[C@H](O)[C@H]1O` (single isomer, unassigned) [Peak 47, Soyasaponin I], the “Source: Dosed Plasma” value is reported as 0.25 to 24 h.
In the case of `N[C@@H](Cc1ccc(O)cc1)C(=O)O` (single isomer, unassigned) [Peak 16, Tyrosine], the “Source: Dosed Plasma” value is reported as 0.25 to 36 h.
In the case of `COc1cc(/C=C/CO)cc(OC)c1O[C@@H]1O[C@H](CO)[C@@H](O)[C@H](O)[C@H]1O` (single isomer, unassigned) [Peak 24, Syringin], the “Source: Dosed Plasma” value is reported as 0.25 to 36 h.
With `NCCCC(=O)O` [Peak 5, γ-Aminobutyric acid] the “Source: Dosed Plasma” value was 0.25 to 36 h.
In the case of `CCCCC=CC=CC(=O)O` (single isomer, unassigned) [Peak 35, 2,4-Nonadienic acid], the “Source: Dosed Plasma” value is reported as 0.25 to 36 h.
In the case of `COc1cc(O)c2c(=O)c(O[C@@H]3O[C@H](CO)[C@@H](O)[C@H](O)[C@H]3O)c(-c3ccc(O[C@@H]4O[C@H](CO)[C@@H](O)[C@H](O)[C@H]4O)cc3)oc2c1` (single isomer, unassigned) [Peak 18, Rhamnocitrin 3,4'-di-O-glucoside], the “Source: Dosed Plasma” value is reported as 0.25 to 6 h.
With `O=C(O)c1ccc(O)c(O)c1` [Peak 12, Protocatechuic acid] the “Source: Dosed Plasma” value was 0.25 to 36 h.
For `CC(C)C[C@H](N)C(=O)O` (single isomer, unassigned) [Peak 9, Leucine], the “Source: Dosed Plasma” value was 0.25 to 36 h.
In the case of Sulfated calycosin [Peak M1], the “Source: Dosed Plasma” value is reported as 0.25 to 8 h.
With `CC(CCC(O)C(C)(C)O)C1C(O)CC2(C)C3CC(OC4OC(CO)C(O)C(O)C4O)C4C(C)(C)C(OC5OCC(O)C(O)C5O)CCC45CC35CCC12C` (single isomer, unassigned) [Peak 43, Cyclocanthoside E] the “Source: Dosed Plasma” value was 3 h.
For `C[C@@H]1O[C@@H](O[C@H]2[C@H](O[C@H]3[C@H](O[C@H]4CC[C@@]5(C)[C@@H](CC[C@]6(C)[C@@H]5CC=C5[C@@H]7CC(C)(C)C[C@@H](O)[C@]7(C)CC[C@]56C)[C@@]4(C)CO)O[C@H](C(=O)O)[C@@H](O)[C@@H]3O)OC[C@@H](O)[C@@H]2O)[C@H](O)[C@H](O)[C@H]1O` (single isomer, unassigned; peak 48) [Peak 48, Astragaloside VIII], the “Source: Dosed Plasma” value was 0.25 to 24 h.
With `COc1ccc(-c2coc3cc(O[C@@H]4O[C@H](CO)[C@@H](O)[C@H](O)[C@H]4O)cc(O)c3c2=O)cc1O` (single isomer, unassigned) [Peak 26, Pratensein-7-O-glucoside] the “Source: Dosed Plasma” value was 0.25 to 8 h.
For `COc1cc(C(=O)O)cc(OC)c1O` [Peak 20, Syringic acid], the “Source: Dosed Plasma” value was 0.25 to 36 h.
For `COc1ccc2c(c1OC)OC1c3ccc(O[C@@H]4O[C@H](CO)[C@@H](O)[C@H](O)[C@H]4O)cc3OCC21` (single isomer, unassigned) [Peak 34, 9,10-dimethoxypterocarpan-3-O-glucoside], the “Source: Dosed Plasma” value was 0.25 to 12 h.
With `N[C@@H](Cc1ccccc1)C(=O)O` (single isomer, unassigned) [Peak 11, Phenylalanine] the “Source: Dosed Plasma” value was 0.25 to 36 h.
With `N[C@@H](Cc1c[nH]c2ccccc12)C(=O)O` (single isomer, unassigned) [Peak 14, Tryptophan] the “Source: Dosed Plasma” value was 0.25 to 36 h.
With `CC(C)(O[C@@H]1O[C@H](CO)[C@@H](O)[C@H](O)[C@H]1O)[C@@H]1CC[C@](C)([C@H]2[C@@H](O)C[C@@]3(C)[C@@H]4C[C@H](O)[C@H]5C(C)(C)[C@@H](O[C@@H]6OC[C@@H](O)[C@H](O)[C@H]6O[C@@H]6O[C@H](CO)[C@@H](O)[C@H](O)[C@H]6O)CC[C@@]56C[C@@]46CC[C@]23C)O1` (single isomer, unassigned; peak 40) [Peak 40, Astragaloside V] the “Source: Dosed Plasma” value was 0.25 to 24 h.
With `CC(C)(O)[C@@H]1CC[C@](C)([C@H]2[C@@H](O)C[C@@]3(C)[C@@H]4C[C@H](O[C@@H]5O[C@H](CO)[C@@H](O)[C@H](O)[C@H]5O)[C@H]5C(C)(C)[C@@H](O[C@@H]6OC[C@@H](O)[C@H](O)[C@H]6O[C@@H]6O[C@H](CO)[C@@H](O)[C@H](O)[C@H]6O)CC[C@@]56C[C@@]46CC[C@]23C)O1` (single isomer, unassigned; peak 41) [Peak 41, Astragaloside VI] the “Source: Dosed Plasma” value was 0.25 to 24 h.
